According to patent publication US20130039904A1, “GAMBOGIC ACID CYCLIZATION ANALOGUES, THEIR PREPARATION METHOD AND APPLICATION THEREOF” (Liaoning Lifeng Scientific & Technology Development Company …, priority 2009, published 2013):
≈ marks a conversion by molar mass, not a printed value. Like-named read-outs stand apart in the source and are kept apart here.

Experiments:
[1] = system: mice sarcoma S180; assay: Growth inhibition of S180 sarcoma in mice; format: in vivo, Kunming mice; design: Inhibition rate (%): concentration or dose not given beside the values; conditions: for Tumor weight / Inhibition rate (%): S180 sarcoma, Kunming mice, iv; for Inhibition rate (%): *P<0.01, **p<0.001 vs control; for anti-tumor efficacy, statistical significance: S180 sarcoma in mice, in words
Description: (§1) Test animals: Kunming kinds of healthy mice (19-21 g), 10 mice (5 male and 5 female)/group, from Beijing Institute of Military Medical Sciences Animal Center.
Tumor strains: mice sarcoma S180 for ascites passaged from Beijing Academy of Military Medical Institute of Pharmacology.
(§2) Xenografts cultured S180 tumor cells were implanted subcutaneously into the flank region of mice and tumors were allowed to grow to the desired average size of 100 mg. The mice were randomized into control and treatment groups with 10 mice per group. The control group was injected with the vehicle used to dissolve the drug. Other groups received the test compounds (example compound 5, 9, 10, 11, 13, 18, 19, 22, 24, 35, 306 and positive group, cyclophosphamide (CTX) and 5-fluorouracil (5-FU)) at the dose and schedule as indicated in Table VI. Injections were I.V. via the tail vein.

[2] = Body weight of S180 sarcoma-bearing mice; conditions: iv
Description: as §1, §2

[3] = system: human colorectal cancer cell line HT29; assay: In vitro anti-cancer cell experiment (MTT), HT29; format: cell-based; conditions: for IC50: Homo sapiens, HT-29; for anti-proliferative effect on HT29: HT29, in words
Description: (§3) a. Cell lines: Human pancreatic cancer cell line Panc-1, human colorectal cancer cell line HT29 and human lung cancer cell line NCI—H460; the medium: s DMEM (Gibco BRL), containing 10% fetal calf serum (Gibco BRL) and 2 mM L-glutamine (Gibco BRL).
(§4) b. Test samples: example compounds 5, 9, 10, 22 and 24. The samples were dissolved in dimethyl sulfoxide (DMSO, Sigma, United States) and medium was added to the final concentration of 0.5%. Cisplatin was as positive control of (CDDP, purity 96%, from Kunming Institute of Precious Metals).
(§5) c. Method: cells were digested with trypsin and dispersed into single cells in the medium containing penicillin (25 U/ml) and streptomycin (25 μg/ml). The cells were seeded in 96-well culture plates (Corning Incorporated), at 37° C., in a humidified atmosphere with 5% CO2 present for 24 hours. The culture medium was removed, […] test compounds were added, cultured for 48 hours. Culture medium was removed and […] (MTT, USA Sigma products) was added. The result was assayed by SK601-based microplate reader (Japan Seikagaku company's products), 570 nm/630 nm optical density (OD).
(§6) Calculation of cell viability: (Experimental group OD/control OD)×100%; Positive control CDDP was treated in the same way.

[4] = system: human lung cancer cell line NCI-H460; assay: In vitro anti-cancer cell experiment (MTT), NCI-H460; format: cell-based
Description: as §3, §4, §5, §6

[5] = system: Human pancreatic cancer cell line Panc-1; assay: In vitro anti-cancer cell experiment (MTT), Panc-1; format: cell-based; conditions: for anti-proliferative effect on Panc-1: Panc-1, in words
Description: as §3, §4, §5, §6

[6] = HT29 cells, 48 hours, MTT, read-out: IC50 HT29
[7] = NCI-H460 cells, 48 hours, MTT, read-out: IC50 NCI-H460
[8] = HT29, text value, P<0.05, read-out: IC50 (anti-proliferative effect on HT29)
[9] = NCI-H460, text value, P<0.05, read-out: IC50 (anti-proliferative effect on NCI-H460)

Structure (SMILES): O=P1(N(CCCl)CCCl)NCCCO1 (stereo not shown) [CTX, cyclophosphamide, reference compound]
- Tumor weight [1]: 1.02 ± 0.88 g
- Inhibition rate (%) [1]: 46.5* %
- body Weight (g) After ad. ([2]; after administration, S180 mice): 26.32 ± 3.58 g
- body Weight (g) Before ad. ([2]; before administration, S180 mice): 21.48 ± 1.60 g

Structure (SMILES): O=c1[nH]cc(F)c(=O)[nH]1 [Compound 5-FU, 5-fluorouracil, reference compound]
- IC50 [3, 6]: 14.4 µg/mL (≈ 110 µM)
- Tumor weight [1]: 1.18 ± 0.49 g
- Inhibition rate (%) [1]: 42.8* %
- body Weight (g) After ad. ([2]; mouse, in vivo): 28.55 ± 2.38 g
- body Weight (g) Before ad. ([2]; mouse, in vivo): 22.59 ± 1.46 g

Structure (SMILES): COC(=O)/C(C)=C\CC12OC(C)(C)[C@H]3C[C@@H](C=C4C(=O)c5c(OC(=O)c6ccc(O[C@@H]7O[C@@H]8COC(C)(C)O[C@H]8[C@H](O)[C@H]7O)cc6)c6c(c(CC=C(C)C)c5OC431)OC(C)(CCC=C(C)C)C=C6)C2=O (stereo partly shown) [Compound 5]
- IC50 [3, 6]: 35.6 µg/mL (≈ 36.9 µM)
- IC50 [4, 7]: 7.73 nM
- Tumor weight [1]: 1.08 ± 0.63 g
- Inhibition rate (%) [1]: 45** %
- body Weight (g) After ad. ([2]; mouse, in vivo): 27.39 ± 2.91 g
- body Weight (g) Before ad. ([2]; mouse, in vivo): 21.53 ± 1.77 g

Structure (SMILES): COC(=O)/C(C)=C\CC12OC(C)(C)C3CC(C1=O)C1C4=C(Nc5nccn51)c1c(O)c5c(c(CC=C(C)C)c1OC432)OC(C)(CCC=C(C)C)C=C5 (stereo not shown) [Compound 9]
- anti-proliferative effect on HT29 [3]: showed anti-proliferative effect
- IC50 [3, 8]: 1.03 µg/mL (≈ 1.46 µM)
- IC50 [3, 6]: 1.03 µg/mL (≈ 1.46 µM)
- anti-proliferative effect on Panc-1 [5]: showed anti-proliferative effect
- IC50 [4, 9]: 6.18 µg/mL
- IC50 [4, 7]: 3.38 nM
- anti-tumor efficacy, statistical significance [1]: statistically significant
- Tumor weight [1]: 0.56 ± 0.13 g
- Inhibition rate (%) [1]: 70.21** %
- body Weight (g) After ad. ([2]; mouse, in vivo): 23.58 ± 1.86 g
- body Weight (g) Before ad. ([2]; mouse, in vivo): 20.53 ± 1.16 g

Structure (SMILES): COC(=O)/C(C)=C\CC12OC(C)(C)C3CC(C1=O)C1C4=C(Nc5nc6ccccc6n51)c1c(O)c5c(c(CC=C(C)C)c1OC432)OC(C)(CCC=C(C)C)C=C5 (stereo not shown) [Compound 10]
- anti-proliferative effect on HT29 [3]: showed anti-proliferative effect
- IC50 [3, 6]: 38.3 µg/mL (≈ 50.6 µM)
- anti-proliferative effect on Panc-1 [5]: showed anti-proliferative effect
- IC50 [4, 7]: 17.2 nM
- Tumor weight [1]: 1.24 ± 0.73 g
- Inhibition rate (%) [1]: 39.36* %
- body Weight (g) After ad. ([2]; mouse, in vivo): 25.12 ± 4.64 g
- body Weight (g) Before ad. ([2]; mouse, in vivo): 20.32 ± 1.22 g

Structure (SMILES): COC(=O)/C(C)=C\CC12OC(C)(C)C3CC(C=C4C(=O)c5c(OC(=O)CCC(=O)N6CCN(C)CC6)c6c(c(CC=C(C)C)c5OC431)OC(C)(CCC=C(C)C)C=C6)C2=O (stereo not shown) [Compound 11]
- Tumor weight [1]: 1.35 ± 0.59 g
- Inhibition rate (%) [1]: 31.01* %
- body Weight (g) After ad. ([2]; mouse, in vivo): 26.30 ± 3.62 g
- body Weight (g) Before ad. ([2]; mouse, in vivo): 19.92 ± 1.47 g

Structure (SMILES): COC(=O)/C(C)=C\CC12OC(C)(C)C3CC(C1=O)C(N1CCOCC1)C1C(=O)c4c(OC(=O)CCl)c5c(c(CC=C(C)C)c4OC132)OC(C)(CCC=C(C)C)C=C5 (stereo not shown) [Compound 13]
- Tumor weight [1]: 1.06 ± 0.70 g
- Inhibition rate (%) [1]: 45** %
- body Weight (g) After ad. ([2]; mouse, in vivo): 27.59 ± 2.52 g
- body Weight (g) Before ad. ([2]; mouse, in vivo): 21.76 ± 1.93 g

Structure (SMILES): COC(=O)/C(C)=C\CC12OC(C)(C)C3CC(C1=O)C1C4=C(Nc5ncnn51)c1c(O)c5c(c(CC=C(C)C)c1OC432)OC(C)(CCC=C(C)C)C=C5 (stereo not shown) [Compound 18]
- Tumor weight [1]: 1.42 ± 0.52 g
- Inhibition rate (%) [1]: 25.26%
- body Weight (g) After ad. ([2]; mouse, in vivo): 27.37 ± 3.92 g
- body Weight (g) Before ad. ([2]; mouse, in vivo): 20.16 ± 0.90 g

Structure (SMILES): COC(=O)/C(C)=C\CC12OC(C)(C)C3CC(C1=O)C1C4=C(c5ccccc5C4=O)N(CCN)C4=C1C32Oc1c(CC=C(C)C)c2c(c(O)c14)C=CC(C)(CCC=C(C)C)O2 (stereo not shown) [Compound 22]
- anti-proliferative effect on HT29 [3]: showed anti-proliferative effect
- IC50 [3, 8]: 3.62 µg/mL (≈ 4.45 µM)
- IC50 [3, 6]: 3.62 µg/mL (≈ 4.45 µM)
- IC50 ([5]; Homo sapiens, Panc-1, text value, P<0.05, read-out: IC50 (anti-proliferative effect on Panc-1)): 3.26 µg/mL (≈ 4.01 µM)
- anti-proliferative effect on Panc-1 [5]: showed anti-proliferative effect
- IC50 [4, 9]: 4.73 µg/mL
- IC50 [4, 7]: 4.89 nM
- anti-tumor efficacy, statistical significance [1]: statistically significant
- Tumor weight [1]: 0.88 ± 0.37 g
- Inhibition rate (%) [1]: 53.19** %
- body Weight (g) After ad. ([2]; mouse, in vivo): 25.77 ± 2.33 g
- body Weight (g) Before ad. ([2]; mouse, in vivo): 19.34 ± 0.81 g

Structure (SMILES): COC(=O)/C(C)=C\CC12OC(C)(C)C3CC(C1=O)C1C4=C(Nc5nccn51)c1c(O[C@H]5O[C@@H](CO)[C@H](O)[C@@H](O)[C@@H]5O)c5c(c(CC=C(C)C)c1OC432)OC(C)(CCC=C(C)C)C=C5 (stereo partly shown) [Compound 24]
- anti-proliferative effect on HT29 [3]: showed anti-proliferative effect
- IC50 [3, 6]: 54.1 µg/mL (≈ 62.2 µM)
- anti-proliferative effect on Panc-1 [5]: showed anti-proliferative effect
- IC50 [4, 7]: 13.7 nM
- anti-tumor efficacy, statistical significance [1]: statistically significant
- Tumor weight [1]: 0.65 ± 0.37 g
- Inhibition rate (%) [1]: 62.87** %
- body Weight (g) After ad. ([2]; mouse, in vivo): 27.61 ± 2.89 g
- body Weight (g) Before ad. ([2]; mouse, in vivo): 20.71 ± 1.75 g

Structure (SMILES): COC(=O)/C(C)=C\CC12OC(C)(C)C3CC(C1=O)C1C4=C(Nc5nccn51)c1c(OCCNCCO)c5c(c(CC=C(C)C)c1OC432)OC(C)(CCC=C(C)C)C=C5 (stereo not shown) [Compound 35]
- anti-tumor efficacy, statistical significance [1]: statistically significant
- Tumor weight [1]: 0.78 ± 0.33 g
- Inhibition rate (%) [1]: 59.25** %
- body Weight (g) After ad. ([2]; mouse, in vivo): 26.86 ± 1.81 g
- body Weight (g) Before ad. ([2]; mouse, in vivo): 20.08 ± 1.92 g

Structure (SMILES): COC(=O)/C(C)=C\CC12OC(C)(C)C3CC(C1=O)C1C4=C(c5ccccc5C4=O)N4CCNC45c4c(O)c6c(c(CC=C(C)C)c4OC32C15)OC(C)(CCC=C(C)C)C=C6 (stereo not shown) [Compound 306]
- Tumor weight [1]: 1.29 ± 0.49 g
- Inhibition rate (%) [1]: 36.77* %
- body Weight (g) After ad. ([2]; mouse, in vivo): 26.98 ± 3.02 g
- body Weight (g) Before ad. ([2]; mouse, in vivo): 20.75 ± 1.33 g
